Data: ChEMBL document CHEMBL5046251, “Discovery of a Series of Pyrimidine Carboxamides as Inhibitors of Vanin-1” (J Med Chem, 2022)

Legend:
[1] = biological target: T1, Pantetheinase (Homo sapiens, UniProt O95497); experiment: Inhibition of recombinant N-terminal FLAG/His6-tagged human vanin-1 expressed in CHO cells using Pantetheine-7-amino-4-trifluoromethykournarin as substrate preincubated for 30 mins followed by substrate addition and measured after 60 mins
T1 sequence (O95497 whole entry): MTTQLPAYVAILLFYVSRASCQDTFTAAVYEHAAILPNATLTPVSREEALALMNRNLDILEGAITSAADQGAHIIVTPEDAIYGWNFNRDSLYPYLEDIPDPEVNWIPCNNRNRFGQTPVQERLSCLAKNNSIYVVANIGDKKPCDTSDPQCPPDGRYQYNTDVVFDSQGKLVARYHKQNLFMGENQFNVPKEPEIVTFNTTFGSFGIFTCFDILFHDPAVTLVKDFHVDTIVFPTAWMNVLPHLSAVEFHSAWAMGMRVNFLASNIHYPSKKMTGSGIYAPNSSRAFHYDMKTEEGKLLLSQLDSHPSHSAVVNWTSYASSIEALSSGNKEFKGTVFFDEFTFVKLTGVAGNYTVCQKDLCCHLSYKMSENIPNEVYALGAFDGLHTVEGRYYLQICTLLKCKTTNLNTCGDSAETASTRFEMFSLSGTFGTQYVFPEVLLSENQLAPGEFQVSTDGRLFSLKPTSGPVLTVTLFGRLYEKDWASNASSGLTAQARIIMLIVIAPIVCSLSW

[2] = Intrinsic clearance in human liver microsomes; type: ADME, Microsome
[3] = Apparent permeability across apical to basolateral side in RRCK cells; conditions: dog, MDCK
[4] = Lipophilicity, log D of the compound in Octanol/buffer by shake-flask method
[5] = biological target: T2, Biotinidase (Homo sapiens, UniProt P43251); experiment: Inhibition of N-terminal FLAG/His6-tagged human biotinidase expressed in COS cells using biotinyl-7-amino-4-trifluoromethylcoumarin as substrate preincubated for 10 mins followed by substrate addition and measured after 90 mins; type: cell-based
T2 sequence (P43251 whole entry): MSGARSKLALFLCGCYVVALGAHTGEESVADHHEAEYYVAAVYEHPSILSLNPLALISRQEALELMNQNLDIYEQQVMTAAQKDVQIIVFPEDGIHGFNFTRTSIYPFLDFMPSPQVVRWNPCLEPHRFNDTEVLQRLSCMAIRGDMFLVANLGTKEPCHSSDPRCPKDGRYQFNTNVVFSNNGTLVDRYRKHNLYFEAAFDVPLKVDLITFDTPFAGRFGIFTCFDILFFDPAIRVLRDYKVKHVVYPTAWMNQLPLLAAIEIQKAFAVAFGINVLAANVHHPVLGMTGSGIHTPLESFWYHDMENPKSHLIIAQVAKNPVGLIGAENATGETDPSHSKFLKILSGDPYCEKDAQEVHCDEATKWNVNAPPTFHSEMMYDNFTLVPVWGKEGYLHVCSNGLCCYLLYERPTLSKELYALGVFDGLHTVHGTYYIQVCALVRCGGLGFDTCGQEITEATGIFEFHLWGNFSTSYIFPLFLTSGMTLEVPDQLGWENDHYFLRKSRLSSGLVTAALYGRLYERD

[6] = biological target: T3, Pantetheinase (Homo sapiens) (UniProt O95497); experiment: Binding affinity to recombinant N-terminal FLAG/His6-tagged human vanin-1 expressed in CHO cells assessed as binding constant (Kon) by surface plasmon resonance analysis
T3 sequence (whole entry): T1 sequence (O95497 whole entry)

[7] = biological target: T1, Pantetheinase; experiment: Binding affinity to recombinant N-terminal FLAG/His6-tagged human vanin-1 expressed in CHO cells assessed as dissociation constant by surface plasmon resonance analysis
[8] = biological target: T3, Pantetheinase (Homo sapiens); experiment: Binding affinity to recombinant N-terminal FLAG/His6-tagged human vanin-1 expressed in CHO cells assessed as binding constant (Koff) by surface plasmon resonance analysis
[9] = biological target: T3, Pantetheinase (Homo sapiens); experiment: Binding affinity to recombinant N-terminal FLAG/His6-tagged human vanin-1 expressed in CHO cells assessed as dissociative half life by surface plasmon resonance analysis
[10] = biological target: T1, Pantetheinase; experiment: Inhibition of recombinant N-terminal FLAG/His6-tagged human vanin-1 expressed in CHO cells at 10 uM by 1H NMR analysis; type: cell-based

| IC50 [1] | Intrinsic clearance [2] | Papp A→B [3] | logD [4] | IC50 [5] | K [6] | Kd [7] | K [8] | T1/2 [9] | IC50 [10] | Compound |
| --- | --- | --- | --- | --- | --- | --- | --- | --- | --- | --- |
| 0.06 nM | 18 µL/min/mg | 17 ×10⁻⁶ cm/s | 0.6 | 3600 nM |  |  |  |  |  | CC(C)(Nc1ncc(C(=O)N2CCC3(CCOCC3)C2)cn1)c1cnccn1 |
| 52 nM | 51 µL/min/mg | 17 ×10⁻⁶ cm/s | 2.9 |  |  |  |  |  |  | Cc1cccc(C(=O)c2cnc(NCc3cccnc3)nc2)c1 |
| 0.04 nM | 19 µL/min/mg | 17 ×10⁻⁶ cm/s | 0.8 |  |  |  |  |  |  | O=C(c1cnc(NC2(c3cnccn3)CCC2)nc1)N1CC2(CCOCC2)C1 |
|  | 26 µL/min/mg | 23 ×10⁻⁶ cm/s | 3 |  |  |  |  |  |  | N#Cc1cccc(C(=O)c2cnc(NC3(c4ccccc4)CC3)nc2)c1 |
|  | 12 µL/min/mg | 3 ×10⁻⁶ cm/s | 0 | 11000 nM |  |  |  |  |  | O=C(c1cnc(NCc2cncnc2)nc1)N1CCC2(CCOCC2)C1 |
| 33 nM | 16 µL/min/mg | 23 ×10⁻⁶ cm/s | 1.2 |  |  |  |  |  |  | N#Cc1cccc(C(=O)c2cnc(NCc3cncnc3)nc2)c1 |
|  | < 10 µL/min/mg | 2 ×10⁻⁶ cm/s | 0 | 1020 nM |  |  |  |  |  | O=C(c1cnc(NC2(c3cncnc3)CC2)nc1)N1CCC2(CCOCC2)C1 |
| 53 nM | 29 µL/min/mg | 28 ×10⁻⁶ cm/s | 2.5 |  |  |  |  |  |  | O=C(c1ccccc1)c1cnc(NCc2cccnc2)nc1 |
| 52 nM | < 8 µL/min/mg | 1.7 ×10⁻⁶ cm/s | -0.4 | 12700 nM |  |  |  |  |  | N#C[C@@H]1CCCN(C(=O)c2cnc(NC3(c4cncnc4)CC3)nc2)C1 |
|  | < 8 µL/min/mg | 7 ×10⁻⁶ cm/s | 2 |  |  |  |  |  |  | C[C@H](Nc1ncc(C(=O)N2CCC3(CCOCC3)C2)cn1)c1cncnc1 |
|  | < 8 µL/min/mg | < 0.2 ×10⁻⁶ cm/s | -3 | 1300 nM |  |  |  |  |  | O=C(c1cnc(NC2(c3cncnc3)COC2)nc1)N1CCC2(CCOCC2)C1 |
|  | < 8 µL/min/mg | 6 ×10⁻⁶ cm/s | 0.7 | 11300 nM |  |  |  |  |  | O=C(c1cnc(NCc2cccnc2)nc1)N1CCC2(CCOCC2)C1 |
|  | < 8 µL/min/mg | 11 ×10⁻⁶ cm/s | 1 | > 50000 nM |  |  |  |  |  | C[C@@H](Nc1ncc(C(=O)N2CCC3(CCOCC3)C2)cn1)c1cnccn1 |
|  | < 8 µL/min/mg | 6 ×10⁻⁶ cm/s | 0.2 | > 50000 nM |  |  |  |  |  | C[C@@H](Nc1ncc(C(=O)N2CCC3(CCOCC3)C2)cn1)c1cncnc1 |
| 4.4 nM | 38 µL/min/mg | 28 ×10⁻⁶ cm/s | 2 |  |  |  |  |  |  | N#Cc1cccc(C(=O)c2cnc(NCc3cccnc3)nc2)c1 |
| 1100 nM | < 8 µL/min/mg | 0.6 ×10⁻⁶ cm/s | -1 |  |  |  |  |  |  | CS(=O)(=O)[C@H]1CCCN(C(=O)c2cnc(NC3(c4cncnc4)CC3)nc2)C1 |
| 0.04 nM | 14 µL/min/mg | 12 ×10⁻⁶ cm/s | 1 | 8900 nM |  |  |  |  |  | O=C(c1cnc(NC2(c3cnccn3)CCC2)nc1)N1CCC2(CCOCC2)C1 |
| 0.08 nM | 15 µL/min/mg | 4 ×10⁻⁶ cm/s | 0.5 | 1900 nM |  |  |  |  |  | CC(C)(Nc1ncc(C(=O)N2CCC3(CCOCC3)C2)cn1)c1cncnc1 |
|  | 14.5 µL/min/mg | 24 ×10⁻⁶ cm/s | 2.2 |  |  |  |  |  |  | O=C(c1cnc(NCc2cccnc2)nc1)c1cccs1 |
| 10.6 nM | < 8 µL/min/mg | 0.6 ×10⁻⁶ cm/s | -1 | 62000 nM |  |  |  |  |  | CS(=O)(=O)[C@@H]1CCCN(C(=O)c2cnc(NC3(c4cncnc4)CC3)nc2)C1 |
| 1200 nM |  |  |  |  |  |  |  |  |  | N#C[C@H]1CCCN(C(=O)c2cnc(NC3(c4cncnc4)CC3)nc2)C1 |
|  | 32 µL/min/mg | 8 ×10⁻⁶ cm/s | 2 |  |  |  |  |  |  | O=C(c1cnc(NC2(c3cncnc3)CCC2)nc1)N1CCC2(CCOCC2)C1 |
| 10.4 nM | < 11 µL/min/mg | 1.5 ×10⁻⁶ cm/s | -0.3 | 53000 nM | 6 10^6/M/s | 7.2 nM | 0.026 s⁻¹ | 26 s | 45 nM | N#CC1CCCN(C(=O)c2cnc(NC3(c4cncnc4)CC3)nc2)C1 (racemic) |
|  | < 8 µL/min/mg | 9 ×10⁻⁶ cm/s | 0 | 7400 nM |  |  |  |  |  | O=C(c1cnc(NCc2cnccn2)nc1)N1CC2(CCOCC2)C1 |
|  | 48 µL/min/mg | 19 ×10⁻⁶ cm/s | 3 |  |  |  |  |  |  | N#Cc1cccc(C(=O)c2cnc(NCc3ccccc3)nc2)c1 |
| 203 nM | < 8 µL/min/mg | 0.9 ×10⁻⁶ cm/s | -0.8 | > 13000 nM | 4.1 10^5/M/s | 37 nM | 0.0088 s⁻¹ | 79 s | 122 nM | CS(=O)(=O)C1CCCN(C(=O)c2cnc(NC3(c4cncnc4)CC3)nc2)C1 (racemic) |
|  | < 8 µL/min/mg | 2 ×10⁻⁶ cm/s | -2 |  |  |  |  |  |  | O=C(c1cnc(NC2(c3cnccn3)COC2)nc1)N1CCC2(CCOCC2)C1 |
| 0.6 nM | < 8 µL/min/mg | 16 ×10⁻⁶ cm/s | 0.2 | 40 nM |  |  |  |  |  | C[C@H](Nc1ncc(C(=O)N2CC3(CCOCC3)C2)cn1)c1cnccn1 |
